Key:
Assay type in all cases: in vivo
Papaver rhoeas (PR) = test: Herbicidal activity in pre-emergence; conditions: dose 500 g/ha, 28 days after treatment, damage scale 0-5 vs blank
Description: (§1) Determination of the herbicidal activity and phytotoxicity in pre-emergence. The herbicidal activity of the compounds of the invention in pre-emergence was evaluated according to the following operating procedure. The vegetable species of interest (weeds or crops) were planted in vases having a diameter of over 10 cm, a height of 10 cm and containing sandy soil. 10 vases were used for each vegetable species. The vases were divided into a further two groups each containing 5 vases for each weed or crop. 24 hours after planting, the vases were dampened with a light shower. An hour after wetting, the first group of vases was treated with a hydro-acetone dispersion containing acetone at 10% v, the product to be evaluated at the desired concentration and Tween 20 at 0.5%. The second group was only treated with a hydroacetone solution containing acetone at 10% by volume and Tween 20 at 0.5%, and was used as a comparison (blank). After the treatment, all the vases were uniformly watered and kept in a conditioned environment under the following environmental conditions: temperature: 24° C. relative humidity: 60% photoperiod: 16 hours light intensity: 10,000 lux 28 days after treatment, the herbicidal activity was evaluated on the basis of the following scale of values referring to the percentage of damage measured on the treated plants with respect to those not treated (blank): Table 3 indicates the results obtained with compounds C-1, C-2 and C-3, evaluated at a dose of 500 g/ha on the following vegetable species: Amarantus retroflexus (AR), Capsella bursa pastoris (CP), Chenopodium album (CA), Galium aparine (GA), Matricaria chamomilla (MC), Papaver rhoeas (PR), Portulaca oleracea (PO), Stellaria media (SM), Alopecurus myosuroides (AM), Panicum dicothomiflorum (PD), maize (M), wheat (F).

[1] = system: Alopecurus myosuroides (AM); test: Herbicidal activity in pre-emergence; conditions: dose 500 g/ha, 28 days after treatment, damage scale 0-5 vs blank
Description: as §1

Portulaca oleracea (PO) = test: Herbicidal activity in pre-emergence; conditions: dose 500 g/ha, 28 days after treatment, damage scale 0-5 vs blank
Description: as §1

Galium aparine (GA) = test: Herbicidal activity in pre-emergence; conditions: dose 500 g/ha, 28 days after treatment, damage scale 0-5 vs blank
Description: as §1

[2] = system: Matricaria chamomilla (MC); test: Herbicidal activity in pre-emergence; conditions: dose 500 g/ha, 28 days after treatment, damage scale 0-5 vs blank
Description: as §1

Stellaria media (SM) = test: Herbicidal activity in pre-emergence; conditions: dose 500 g/ha, 28 days after treatment, damage scale 0-5 vs blank
Description: as §1

[3] = system: Capsella bursa pastoris (CP); test: Herbicidal activity in pre-emergence; conditions: dose 500 g/ha, 28 days after treatment, damage scale 0-5 vs blank
Description: as §1

Chenopodium album (CA) = test: Herbicidal activity in pre-emergence; conditions: dose 500 g/ha, 28 days after treatment, damage scale 0-5 vs blank
Description: as §1

[4] = system: Amarantus retroflexus (AR); test: Herbicidal activity in pre-emergence; conditions: dose 500 g/ha, 28 days after treatment, damage scale 0-5 vs blank
Description: as §1

[5] = system: Panicum dicothomiflorum (PD); test: Herbicidal activity in pre-emergence; conditions: dose 500 g/ha, 28 days after treatment, damage scale 0-5 vs blank
Description: as §1

maize (M) = test: Phytotoxicity in pre-emergence; conditions: maize (crop), dose 500 g/ha, 28 days after treatment, damage scale 0-5 vs blank
Description: (§2) Determination of the herbicidal activity and phytotoxicity in pre-emergence. The herbicidal activity of the compounds of the invention in pre-emergence was evaluated according to the following operating procedure. The vegetable species of interest (weeds or crops) were planted in vases having a diameter of over 10 cm, a height of 10 cm and containing sandy soil. 10 vases were used for each vegetable species. The vases were divided into a further two groups each containing 5 vases for each weed or crop. 24 hours after planting, the vases were dampened with a light shower. An hour after wetting, the first group of vases was treated with a hydro-acetone dispersion containing acetone at 10% v, the product to be evaluated at the desired concentration and Tween 20 at 0.5%. The second group was only treated with a hydroacetone solution containing acetone at 10% by volume and Tween 20 at 0.5%, and was used as a comparison (blank). […]

wheat (F) = test: Phytotoxicity in pre-emergence; conditions: wheat (crop), dose 500 g/ha, 28 days after treatment, damage scale 0-5 vs blank
Description: as §2

Structure (SMILES)	Herbicidal activity in pre-emergence, PR (Papaver rhoeas (PR))	Herbicidal activity in pre-emergence, AM [1]	Herbicidal activity in pre-emergence, PO (Portulaca oleracea (PO))	Herbicidal activity in pre-emergence, GA (Galium aparine (GA))	Herbicidal activity in pre-emergence, MC [2]	Herbicidal activity in pre-emergence, SM (Stellaria media (SM))	Herbicidal activity in pre-emergence, CP [3]	Herbicidal activity in pre-emergence, CA (Chenopodium album (CA))	Herbicidal activity in pre-emergence, AR [4]	Herbicidal activity in pre-emergence, PD [5]	Herbicidal activity (phytotoxicity) in pre-emergence, M (maize (M))	Herbicidal activity (phytotoxicity) in pre-emergence, F (wheat (F))
Cc1ccc(NC(=O)C2CC2)c(OCc2cccc(C(F)(F)F)c2)c1 [C-1, N-[4-methyl-2-(3-trifluoromethylphenyl)-methoxyphenyl]cyclopropanecarboxamide]	5 (5=90% damage—death of the plant)	5 (5=90% damage—death of the plant)	5 (5=90% damage—death of the plant)	5 (5=90% damage—death of the plant)	5 (5=90% damage—death of the plant)	5 (5=90% damage—death of the plant)	5 (5=90% damage—death of the plant)	5 (5=90% damage—death of the plant)	5 (5=90% damage—death of the plant)	5 (5=90% damage—death of the plant)		
Cc1ccc(NC(=O)C2CC2)c(COc2cccc(C(F)(F)F)c2)c1 [C-2, N-[4-methyl-2-(3-trifluoromethylphenoxy)methylphenyl]cyclopropanecarboxamide]	5 (5=90% damage—death of the plant)	5 (5=90% damage—death of the plant)	5 (5=90% damage—death of the plant)	5 (5=90% damage—death of the plant)	5 (5=90% damage—death of the plant)	5 (5=90% damage—death of the plant)	5 (5=90% damage—death of the plant)	5 (5=90% damage—death of the plant)	5 (5=90% damage—death of the plant)	5 (5=90% damage—death of the plant)	0 (0=0-9% damage)	0 (0=0-9% damage)

From US20040242426A1, “New derivatives of substituted anilined with herbicidal activity” (priority 2001, published 2004)
